Measurements from ChEMBL document CHEMBL1151998, “Combretatroponeshybrids of combretastatin and colchicine. Synthesis and biochemical evaluation” (Bioorg Med Chem Lett, 1993).

The compounds below were run against Tubulin beta chain (Bos taurus, UniProt Q6B856) (assay: Compound was evaluated for in vitro inhibitory activity against polymerization of tubulin into microtubules isolated from bovine brain at 1 mg/mL tubulin concentration).
Type: tissue-based

Tubulin beta chain, sequence (Q6B856 whole entry): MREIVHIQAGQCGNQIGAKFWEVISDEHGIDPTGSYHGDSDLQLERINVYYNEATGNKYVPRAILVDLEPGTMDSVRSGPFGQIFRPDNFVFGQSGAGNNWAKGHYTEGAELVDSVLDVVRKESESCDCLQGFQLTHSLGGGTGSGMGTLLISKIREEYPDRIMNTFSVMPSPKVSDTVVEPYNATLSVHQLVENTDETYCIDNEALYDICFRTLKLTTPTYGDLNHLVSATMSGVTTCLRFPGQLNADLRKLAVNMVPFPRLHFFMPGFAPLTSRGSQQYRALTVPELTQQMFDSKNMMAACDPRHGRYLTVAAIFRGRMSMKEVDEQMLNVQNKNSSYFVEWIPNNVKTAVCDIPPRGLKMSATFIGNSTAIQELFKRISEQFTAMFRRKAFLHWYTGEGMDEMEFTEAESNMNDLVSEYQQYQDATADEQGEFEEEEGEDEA

Question: How did the IC50 turn out when `COc1cc(CCc2cccc(SC)c(=O)c2)cc(OC)c1OC` was run?
Answer: 12 µM

Question: Which IC50 does the source give for `COc1cc(CCc2cccc(OC)c(=O)c2)cc(OC)c1OC` here?
Answer: 8.6 µM

Question: For `COc1ccc(-c2ccc(OC)c(=O)cc2)c(OC)c1OC`, which IC50 is on record?
Answer: 2.5 µM
